Laboratory results as given in patent US11446300B2 (Alexion Pharmaceuticals, Inc., priority 2015, dated 2022).

What was measured:
OCI-Ly18 = assay: Combination synergy, Cell Titer Glo, 72 hours; format: cell-based; details: Homo sapiens, OCI-Ly18, 72 h
Experimental: Synergistic anti-tumor activity in DLBCL cell lines was determined using the Cell Titer Glo assay. Briefly, 5,000 cells were plated in 96 well plates in complete tissue culture media. […] Cells were incubated with or without drug for 72 hours in a 37° C. tissue culture incubator prior to evaluation by CellTiter Glo as per the manufacturer protocol (Promega). Synergy was evaluated by calculating a combination index score, as described elsewhere (Jacquement et al, Molecular Cancer 2012) following IC50 determination using Prism software. The compounds are commercially available or are made according to synthetic methods known to those skilled in the art.

GM-CSF signaling = assay: Phase I study, whole blood assay of GM-CSF signaling; format: in vivo; details: Homo sapiens; Patient 1; 65 mg PO QD
Experimental: (§1) Pharmacokinetics (“PK”), pharmacodynamics (“PD”), and safety were monitored. Response was assessed by standard criteria. The level of inhibition of SYK and JAK was determined using a variety of whole blood assays measuring signaling via receptors for the B-cell antigen, IL2, IL4, IL6, and GM-CSF. Serum markers of tumor burden, including CCL3, CCL4, and other markers of inflammation (02M and CRP), were also being measured.

DHL10 = assay: DLBCL cell line viability, CellTiter Glo, ten-point curve; format: cell-based; details: read-out: IC50 of Kinase Inhibitor in Cell Titer Glo Assay
DLBCL cell lines = assay: Panel of 15 DLBCL cell lines: viability, caspase 3 cleavage and Edu incorporation; format: cell-based
Experimental: Cell lines, purchased from ATCC, were screened using the CellTiter Glo (Promega) assay in 384 well plates using a ten-point concentration response curve to generate IC50's. Each IC50 value is an average of at least four replicate experiments. Subsequent analysis using a FACS based caspase 3 cleavage detection kit (BD Biosciences) and Edu incorporation were performed.

IL2, IL4, IL6 signaling = assay: Phase I study, whole blood assay of IL2, IL4, IL6 signaling; format: in vivo; details: Homo sapiens; Patient 1; 65 mg PO QD
Experimental: as §1

LY10 (OCI-LY10) = assay: DLBCL cell line viability, CellTiter Glo, ten-point curve; format: cell-based
DHL6 = assay: as above; format: cell-based; details: read-out: IC50 of Kinase Inhibitor in Cell Titer Glo Assay
[1] = system: serum markers of inflammation (β2M, CRP, CCL3, CCL4); assay: Phase I study, serum markers of inflammation; format: in vivo, human
Experimental: as §1

Compound `CCS(=O)(=O)N1CCN(c2ccc(Nc3ncc(C(N)=O)c(NC4CC4)n3)cc2)CC1` [Cerdulatinib, 4-(cyclopropylamino)-2-(4-(4-(ethylsulfonyl)piperazin-1-yl)phenylamino)pyrimidine-5-carboxamide] has an IC50 (OCI-Ly18) of 1330 nM, an inhibition at 65 mg (GM-CSF signaling) of about 20% and an IC50 (DHL10) of 2300 nM. For the same compound, the “anti-tumor activity in DLBCL cell lines bearing mutations to CARD11, MYD88, and A20” value (DLBCL cell lines) was “maintained anti-tumor activity”, the “cell lines that underwent apoptosis” value (DLBCL cell lines; panel of 15 cell lines, ABC and GCB subtypes) was 9 and the “cell lines completely resistant” value (DLBCL cell lines; screen of 15 DLBCL cell lines) was 3. The inhibition at 65 mg (IL2, IL4, IL6 signaling) was 60 to 100%, the “response of cell line” value (LY10 (OCI-LY10); LY10 (OCI-LY10), CD79 mutation) was “sensitive” and the IC50 (LY10 (OCI-LY10); LY10 cell line, read-out: IC50 of Kinase Inhibitor in Cell Titer Glo Assay) was 290 nM. For the same compound, the IC50 (DHL6) was 1200 nM, the “inhibition of serum markers of inflammation” value ([1]; QD dosing of 40-100 mg) was “significant inhibition” and the “serum proteins that are markers of inflammation (β2M, CRP, TNFR, CCL3/4)” value ([1]; in vivo) was “significantly reduced”.
